Measured values taken from patent publication US12297194B2, “N2-phenylpyrimidine-2,4-diamine compounds, and preparation methods and methods of use thereof” (BRIDGE BIOTHERAPEUTICS, INC., priority 2021, dated 2025).

What was measured:
Assay type in all cases: cell-based, murine
Ba/F3 EGFR Wild-type = Ba/F3 EGFR Wild-type (Homo sapiens, UniProt P00533); experiment: CellTiter-Glo cell viability, Ba/F3 EGFR wild-type cells; conditions: 72 hours, read-out: Ba/F3 EGFR mutant cell (IC50, nM) WT
How it was run: (§1)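 Ba/F3 cells expressing wild-type or mutant EGFR were seeded at 2500 cells/well, treated after 24 hours with compound at 0–2000 nM (ten points), and incubated 72 hours at 37° C. Viability was read as cellular ATP by CellTiter-Glo luminescence, and IC50 values were fitted from the dose-response.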

[1] = target: Ba/F3 EGFR L858R/C797S mutants (Homo sapiens, UniProt P00533, C797S/L858R, cells depend on it); experiment: CellTiter-Glo cell viability, Ba/F3 EGFR L858R/C797S cells; conditions: 72 hours, read-out: Ba/F3 EGFR mutant cell (IC50, nM) L/C
How it was run: as §1

[2] = target: Ba/F3 EGFR L858R/T790M/C797S mutants (Homo sapiens, UniProt P00533, T790M/C797S/L858R, cells depend on it); experiment: CellTiter-Glo cell viability, Ba/F3 EGFR L858R/T790M/C797S cells; conditions: 72 hours, read-out: Ba/F3 EGFR mutant cell (IC50, nM) L/T/C
How it was run: as §1

[3] = target: Ba/F3 EGFR Del19/T790M mutants (Homo sapiens, UniProt P00533, T790M, cells depend on it, form not given); experiment: CellTiter-Glo cell viability, Ba/F3 EGFR Del19/T790M cells; conditions: 72 hours, read-out: Ba/F3 EGFR mutant cell (IC50, nM) D/T
How it was run: as §1

[4] = target: Ba/F3 EGFR Del19/C797S mutants (Homo sapiens, UniProt P00533, C797S, cells depend on it, form not given); experiment: CellTiter-Glo cell viability, Ba/F3 EGFR Del19/C797S cells; conditions: 72 hours, read-out: Ba/F3 EGFR mutant cell (IC50, nM) D/C
How it was run: as §1

[5] = target: Ba/F3 EGFR Del19/T790M/C797S mutants (Homo sapiens, UniProt P00533, T790M/C797S, cells depend on it, form not given); experiment: CellTiter-Glo cell viability, Ba/F3 EGFR Del19/T790M/C797S cells; conditions: 72 hours, read-out: Ba/F3 EGFR mutant cell (IC50, nM) D/T/C
How it was run: as §1

Sequence of Ba/F3 EGFR Wild-type (P00533 whole entry, change not shown): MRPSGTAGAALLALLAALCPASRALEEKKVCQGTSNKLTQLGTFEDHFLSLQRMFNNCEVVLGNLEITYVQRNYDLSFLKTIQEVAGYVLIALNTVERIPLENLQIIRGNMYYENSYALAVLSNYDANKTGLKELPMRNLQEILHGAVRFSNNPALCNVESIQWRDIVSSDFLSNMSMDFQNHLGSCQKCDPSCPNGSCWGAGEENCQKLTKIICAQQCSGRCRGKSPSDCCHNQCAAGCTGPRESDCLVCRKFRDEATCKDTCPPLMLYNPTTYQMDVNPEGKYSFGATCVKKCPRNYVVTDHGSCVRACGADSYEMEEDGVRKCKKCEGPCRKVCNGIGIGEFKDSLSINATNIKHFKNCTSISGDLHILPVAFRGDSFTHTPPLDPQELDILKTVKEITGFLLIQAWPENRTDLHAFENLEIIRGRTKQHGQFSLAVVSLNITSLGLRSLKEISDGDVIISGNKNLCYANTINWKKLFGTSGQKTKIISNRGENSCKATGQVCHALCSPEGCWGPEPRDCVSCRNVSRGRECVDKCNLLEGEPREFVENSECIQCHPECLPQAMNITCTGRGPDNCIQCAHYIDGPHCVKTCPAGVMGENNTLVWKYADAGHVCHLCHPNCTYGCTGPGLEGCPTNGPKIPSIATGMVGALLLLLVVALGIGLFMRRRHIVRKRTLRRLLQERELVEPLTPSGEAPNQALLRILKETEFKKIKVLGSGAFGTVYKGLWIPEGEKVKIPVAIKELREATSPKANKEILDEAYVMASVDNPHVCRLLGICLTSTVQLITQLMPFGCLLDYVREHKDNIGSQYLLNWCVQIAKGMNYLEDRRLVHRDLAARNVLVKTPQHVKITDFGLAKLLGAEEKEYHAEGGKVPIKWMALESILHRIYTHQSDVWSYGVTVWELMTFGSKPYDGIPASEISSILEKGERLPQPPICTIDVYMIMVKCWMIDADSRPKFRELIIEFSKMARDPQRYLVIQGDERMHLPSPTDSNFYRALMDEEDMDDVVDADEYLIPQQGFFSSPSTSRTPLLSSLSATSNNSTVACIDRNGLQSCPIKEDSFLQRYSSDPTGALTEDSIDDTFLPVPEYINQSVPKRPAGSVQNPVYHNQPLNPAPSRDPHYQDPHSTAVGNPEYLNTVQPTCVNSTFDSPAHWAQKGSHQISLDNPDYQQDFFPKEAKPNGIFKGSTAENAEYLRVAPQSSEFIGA
Sequence of Ba/F3 EGFR L858R/C797S mutants (P00533 whole entry C797S/L858R): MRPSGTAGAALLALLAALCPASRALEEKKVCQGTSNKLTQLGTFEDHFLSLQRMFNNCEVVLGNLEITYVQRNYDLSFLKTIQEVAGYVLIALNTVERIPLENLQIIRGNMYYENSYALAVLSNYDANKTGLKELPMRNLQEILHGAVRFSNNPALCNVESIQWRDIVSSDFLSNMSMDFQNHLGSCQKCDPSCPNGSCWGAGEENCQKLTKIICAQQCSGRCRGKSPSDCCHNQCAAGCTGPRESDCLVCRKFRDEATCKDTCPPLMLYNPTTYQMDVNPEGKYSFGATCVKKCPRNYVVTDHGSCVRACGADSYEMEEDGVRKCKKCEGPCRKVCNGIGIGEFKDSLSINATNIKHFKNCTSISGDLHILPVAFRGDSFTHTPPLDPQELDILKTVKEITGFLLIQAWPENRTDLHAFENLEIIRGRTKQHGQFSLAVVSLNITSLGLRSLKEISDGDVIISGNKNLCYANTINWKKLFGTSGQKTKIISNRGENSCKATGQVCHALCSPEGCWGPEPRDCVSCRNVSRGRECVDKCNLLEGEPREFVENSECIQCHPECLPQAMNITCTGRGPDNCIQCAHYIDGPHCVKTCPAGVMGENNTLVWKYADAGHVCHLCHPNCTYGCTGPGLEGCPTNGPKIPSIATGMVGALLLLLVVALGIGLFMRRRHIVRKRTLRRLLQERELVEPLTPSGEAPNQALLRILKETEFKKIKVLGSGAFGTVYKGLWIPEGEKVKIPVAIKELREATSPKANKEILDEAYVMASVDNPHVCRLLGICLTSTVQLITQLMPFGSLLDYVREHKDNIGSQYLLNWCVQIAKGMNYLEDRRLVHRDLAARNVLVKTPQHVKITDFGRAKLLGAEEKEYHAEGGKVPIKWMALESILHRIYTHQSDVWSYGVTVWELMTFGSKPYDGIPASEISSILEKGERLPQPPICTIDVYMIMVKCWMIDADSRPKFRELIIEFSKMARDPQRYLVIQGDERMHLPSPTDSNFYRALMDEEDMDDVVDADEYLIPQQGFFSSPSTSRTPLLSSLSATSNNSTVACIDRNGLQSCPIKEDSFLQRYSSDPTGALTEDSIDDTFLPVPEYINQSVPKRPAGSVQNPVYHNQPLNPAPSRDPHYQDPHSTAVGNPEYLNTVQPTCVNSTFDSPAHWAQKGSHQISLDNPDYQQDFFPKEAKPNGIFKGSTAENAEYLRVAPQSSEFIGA
Sequence of Ba/F3 EGFR Del19/T790M/C797S mutants (P00533 with tags, fused parts or gaps DEL746-750/T790M/C797S, form open): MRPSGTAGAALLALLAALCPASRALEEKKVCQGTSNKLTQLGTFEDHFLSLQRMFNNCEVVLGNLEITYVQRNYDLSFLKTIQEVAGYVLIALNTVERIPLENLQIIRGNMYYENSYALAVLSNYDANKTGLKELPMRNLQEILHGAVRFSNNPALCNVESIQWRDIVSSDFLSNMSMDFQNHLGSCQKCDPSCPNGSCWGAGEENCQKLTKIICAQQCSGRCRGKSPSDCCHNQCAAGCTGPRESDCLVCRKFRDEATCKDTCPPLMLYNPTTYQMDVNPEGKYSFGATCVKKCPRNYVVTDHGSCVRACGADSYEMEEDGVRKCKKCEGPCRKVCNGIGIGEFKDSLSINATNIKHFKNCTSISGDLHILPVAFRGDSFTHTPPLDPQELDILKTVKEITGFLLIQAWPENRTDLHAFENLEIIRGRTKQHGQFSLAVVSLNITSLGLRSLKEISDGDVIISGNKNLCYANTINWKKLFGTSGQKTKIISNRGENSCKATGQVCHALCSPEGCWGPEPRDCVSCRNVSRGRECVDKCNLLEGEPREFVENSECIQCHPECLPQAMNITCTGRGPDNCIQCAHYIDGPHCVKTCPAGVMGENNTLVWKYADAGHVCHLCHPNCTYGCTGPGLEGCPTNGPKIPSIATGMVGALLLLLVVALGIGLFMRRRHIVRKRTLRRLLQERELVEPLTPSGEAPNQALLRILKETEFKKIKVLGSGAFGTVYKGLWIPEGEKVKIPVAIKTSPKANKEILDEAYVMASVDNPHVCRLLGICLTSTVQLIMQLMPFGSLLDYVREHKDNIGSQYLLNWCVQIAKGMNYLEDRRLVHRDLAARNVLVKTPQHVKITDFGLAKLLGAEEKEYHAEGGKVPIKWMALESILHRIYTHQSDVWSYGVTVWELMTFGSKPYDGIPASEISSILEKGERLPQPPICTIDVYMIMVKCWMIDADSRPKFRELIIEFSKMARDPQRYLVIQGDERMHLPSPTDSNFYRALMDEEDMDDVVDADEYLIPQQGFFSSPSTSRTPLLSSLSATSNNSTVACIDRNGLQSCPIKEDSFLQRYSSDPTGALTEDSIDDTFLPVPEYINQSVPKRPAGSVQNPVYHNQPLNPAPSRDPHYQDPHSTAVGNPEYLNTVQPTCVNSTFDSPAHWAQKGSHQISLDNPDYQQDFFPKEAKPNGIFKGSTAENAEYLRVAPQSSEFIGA
Sequence of Ba/F3 EGFR L858R/T790M/C797S mutants (P00533 whole entry T790M/C797S/L858R): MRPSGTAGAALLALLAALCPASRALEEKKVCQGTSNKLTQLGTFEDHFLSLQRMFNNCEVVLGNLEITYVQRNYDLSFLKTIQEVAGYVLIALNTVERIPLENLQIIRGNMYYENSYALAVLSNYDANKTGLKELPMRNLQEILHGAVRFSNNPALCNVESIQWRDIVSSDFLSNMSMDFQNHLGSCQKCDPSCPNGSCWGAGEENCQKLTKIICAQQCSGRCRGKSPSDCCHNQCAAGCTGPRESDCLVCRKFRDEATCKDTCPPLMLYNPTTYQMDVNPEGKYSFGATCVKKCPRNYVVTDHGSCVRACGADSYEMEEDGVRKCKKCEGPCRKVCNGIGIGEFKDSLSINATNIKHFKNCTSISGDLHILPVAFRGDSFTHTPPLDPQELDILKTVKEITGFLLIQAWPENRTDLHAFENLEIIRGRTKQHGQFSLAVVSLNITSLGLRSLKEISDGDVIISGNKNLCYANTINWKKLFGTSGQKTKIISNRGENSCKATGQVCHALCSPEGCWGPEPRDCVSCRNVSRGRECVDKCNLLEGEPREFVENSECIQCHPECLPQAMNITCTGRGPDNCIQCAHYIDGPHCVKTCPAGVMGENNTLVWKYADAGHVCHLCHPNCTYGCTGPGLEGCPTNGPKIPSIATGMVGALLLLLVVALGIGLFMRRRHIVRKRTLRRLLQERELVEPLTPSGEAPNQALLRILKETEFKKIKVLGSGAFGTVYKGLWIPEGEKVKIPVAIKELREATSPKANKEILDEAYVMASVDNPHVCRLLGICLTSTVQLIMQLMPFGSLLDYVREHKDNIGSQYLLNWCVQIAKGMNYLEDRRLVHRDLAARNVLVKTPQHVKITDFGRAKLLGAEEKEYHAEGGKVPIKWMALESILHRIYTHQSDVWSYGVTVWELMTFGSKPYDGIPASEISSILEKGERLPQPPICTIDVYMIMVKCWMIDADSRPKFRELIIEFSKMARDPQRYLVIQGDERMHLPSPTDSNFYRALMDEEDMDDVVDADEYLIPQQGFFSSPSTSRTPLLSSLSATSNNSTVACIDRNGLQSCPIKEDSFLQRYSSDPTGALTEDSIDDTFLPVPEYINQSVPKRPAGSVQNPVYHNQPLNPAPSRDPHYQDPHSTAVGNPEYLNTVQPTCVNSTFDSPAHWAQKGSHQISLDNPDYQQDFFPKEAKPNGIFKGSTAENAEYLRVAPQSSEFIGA

| Structure (SMILES) | GI50 (Ba/F3 EGFR Wild-type) [nM] | GI50 [1] [nM] | GI50 [2] [nM] | GI50 [3] [nM] | GI50 [4] [nM] | GI50 [5] [nM] |
| --- | --- | --- | --- | --- | --- | --- |
| COc1cc(C2CCNCC2)ccc1Nc1ncc(Br)c(Nc2ccc3nccnc3c2NS(C)(=O)=O)n1 [Example B18, N-(6-((5-bromo-2-((2-methoxy-4-(piperidin-4-yl)phenyl)amino)pyrimidin-4-yl)amino)quinoxalin-5-yl)methanesulfonamide] | > 2000 | 1020 | 1440 | 598 | 725 | 818 |
| COc1cc(N2CCC(N3CCN(C)CC3)CC2)c(C)cc1Nc1ncc(Cl)c(Nc2cccc(OC)c2NS(C)(=O)=O)n1 [Example C24, N-(2-((5-chloro-2-((2-methoxy-5-methyl-4-(4-(4-methylpiperazin-1-yl)piperidin-1-yl)phenyl)amino)pyrimidin-4-yl)amino)-6-methoxyphenyl)methanesulfonamide] | 605 | 41 | 83 | 14 | 6 | 7 |
| COc1cc(N2CCC(N3CCCC3)CC2)c(C)cc1Nc1ncc(Cl)c(Nc2ccc3c(c2NS(C)(=O)=O)OCCO3)n1 [Example C27, N-(6-((5-chloro-2-((2-methoxy-5-methyl-4-(4-(pyrrolidin-1-yl)piperidin-1-yl)phenyl)amino)pyrimidin-4-yl)amino)-2,3-dihydrobenzo[b][1,4]dioxin-5-yl)methanesulfonamide] | 565 | 43 | 48 | 16 | 10 | 15 |
| COc1ccc(Nc2nc(Nc3cc(C)c(N4CCC(N5CCCC5)CC4)cc3OC)ncc2Cl)c(NS(C)(=O)=O)c1 [Example C11, N-(2-((5-chloro-2-((2-methoxy-5-methyl-4-(4-(pyrrolidin-1-yl)piperidin-1-yl)phenyl)amino)pyrimidin-4-yl)amino)-5-methoxyphenyl)methanesulfonamide] | 458 | 45 | 39 | 5 | 6 | 9 |
| CCCc1cc(Nc2ncc(Cl)c(Nc3ccc4c(c3NS(C)(=O)=O)OCCO4)n2)c(OC)cc1N1CCC(N(C)C)CC1 [Example C13, N-(6-((5-chloro-2-((4-(4-(dimethylamino)piperidin-1-yl)-2-methoxy-5-propylphenyl)amino)pyrimidin-4-yl)amino)-2,3-dihydrobenzo[b][1,4]dioxin-5-yl)methanesulfonamide] | 769 | 61 | 52 | 20 | 23 | 27 |
| CCc1cc(Nc2ncc(Br)c(Nc3ccc4nccnc4c3N(C)S(C)(=O)=O)n2)c(OC)cc1N1CC2(CCN2C(C)C)C1 [Example B31, N-(6-((5-bromo-2-((5-ethyl-4-(1-isopropyl-1,6-diazaspiro[3.3]heptan-6-yl)-2-methoxyphenyl)amino)pyrimidin-4-yl)amino)quinoxalin-5-yl)-N-methylmethanesulfonamide] | 482 | 43 | 43 | 8 | 15 | 6 |
| COc1cc(C2CCNCC2)ccc1Nc1ncc(Cl)c(Nc2ccc3nccnc3c2NC(C)=O)n1 [Example D3, N-(6-((5-chloro-2-((2-methoxy-4-(piperidin-4-yl)phenyl)amino)pyrimidin-4-yl)amino)quinoxalin-5-yl)acetamide] | > 2000 | 1030 | 1180 | 678 | 378 | 717 |
| COc1cc(C2CCN(C)CC2)ccc1Nc1ncc(Cl)c(Nc2ccc3nccnc3c2NS(C)(=O)=O)n1 [Example B23, N-(6-((5-chloro-2-((2-methoxy-4-(1-methylpiperidin-4-yl)phenyl)amino)pyrimidin-4-yl)amino)quinoxalin-5-yl)methanesulfonamide] | 868 | 302 | 354 | 154 | 100 | 112 |
| COc1cc(N2CCC(N3CCOCC3)CC2)c(C)cc1Nc1ncc(Br)c(Nc2ccc3nccnc3c2NS(C)(=O)=O)n1 [Example A23, N-(6-((5-bromo-2-((2-methoxy-5-methyl-4-(4-morpholinopiperidin-1-yl)phenyl)amino)pyrimidin-4-yl)amino)quinoxalin-5-yl)methanesulfonamide] | 416 | 114 | 49 | 41 | 51 | 16 |
| CCc1cc(Nc2ncc(Cl)c(Nc3ccc(OC)c(OC)c3N(C)S(C)(=O)=O)n2)c(OC)cc1N1CCC(N2CCOCC2)CC1 [Example C32, N-(6-((5-chloro-2-((5-ethyl-2-methoxy-4-(4-morpholinopiperidin-1-yl)phenyl)amino)pyrimidin-4-yl)amino)-2,3-dimethoxyphenyl)-N-methylmethanesulfonamide] | 1920 | 82 | 191 | 176 | 79 | 46 |
| COc1ccc(Nc2nc(Nc3cc(C)c(N4CCC(N(C)C)CC4)cc3OC)ncc2Cl)c(NS(C)(=O)=O)c1 [Example C4, N-(2-((5-chloro-2-((4-(4-(dimethylamino)piperidin-1-yl)-2-methoxy-5-methylphenyl)amino)pyrimidin-4-yl)amino)-5-methoxyphenyl)methanesulfonamide] | 263 | 91 | 38 | 30 | 31 | 132 |
| COC(=O)Nc1c(Nc2nc(Nc3ccc(C4CCNCC4)cc3OC)ncc2Cl)ccc2nccnc12 [Example D4, methyl (6-((5-chloro-2-((2-methoxy-4-(piperidin-4-yl)phenyl)amino)pyrimidin-4-yl)amino)quinoxalin-5-yl)carbamate] | > 2000 | 1570 | > 2000 | 694 | 746 | 870 |
| COc1cc(N2CCC(N3CCN(C)CC3)CC2)c(C)cc1Nc1ncc(C)c(Nc2ccc3nccnc3c2NS(C)(=O)=O)n1 [Example A21, N-(6-((2-((2-methoxy-5-methyl-4-(4-(4-methylpiperazin-1-yl)piperidin-1-yl)phenyl)amino)-5-methylpyrimidin-4-yl)amino)quinoxalin-5-yl)methane sulfonamide] | 460 | 52 | 103 | 24 | 23 | 58 |
| COc1cc(C2CCN(C(C)=O)CC2)ccc1Nc1ncc(Cl)c(Nc2ccc3nccnc3c2NS(C)(=O)=O)n1 [Example B8, N-(6-((2-((4-(1-acetylpiperidin-4-yl)-2-methoxyphenyl)amino)-5-chloropyrimidin-4-yl)amino)quinoxalin-5-yl)methanesulfonamide] | 729 | 554 | 861 | 424 | 320 | 292 |
| CCc1cc(Nc2ncc(Cl)c(Nc3ccc(OC)cc3NS(C)(=O)=O)n2)c(OC)cc1N1CCC(N2CCOCC2)CC1 [Example C14, N-(2-((5-chloro-2-((5-ethyl-2-methoxy-4-(4-morpholinopiperidin-1-yl)phenyl)amino)pyrimidin-4-yl)amino)-5-methoxyphenyl) methanesulfonamide] | 415 | 22 | 21 | 2 | 4 | 4 |
| COc1cc(N2CCC(N3CCN(C)C4(CC4)C3)CC2)ccc1Nc1ncc(Cl)c(Nc2ccc3nccnc3c2NS(C)(=O)=O)n1 [Example A15, N-(6-((5-chloro-2-((2-methoxy-4-(4-(4-methyl-4,7-diazaspiro[2.5]octan-7-yl)piperidin-1-yl)phenyl)amino)pyrimidin-4-yl)amino)quinoxalin-5-yl)methanesulfonamide] | 811 | 423 | 473 | 156 | 295 | 211 |
